According to patent US7078428B2, “Isoindolone derivatives, preparation process and intermediates of this process, their use as medicaments, and pharmaceutical compositions comprising them” (Sanofi-Aventis Deutschland GmbH, priority 2002, dated 2006):

What was measured:
NHE1 = target: T1, NHE1 (Homo sapiens, UniProt P19634); assay: NHE inhibition FLIPR test (intracellular pH recovery, BCECF) in transfected LAP-1 cells; format: cell-based; conditions: transfected cell line (parental LAP-1) expressing the NHE-1 subtype, pHi recovery after acidification
T1 construct: expressed in transfected cells
Procedure: The NHE inhibitory activities (IC50 values) of the compounds according to the invention were determined by a FLIPR test.
The test is performed in the FLIPR (Fluorescent Imaging Plate Reader) equipped with clear-bottomed and black-walled 96-well microtitration plates.
The growth medium for the transfected cells (Iscove +10% foetal calf serum) also comprises G418 as selection antibiotic to ensure the presence of transfected sequences.
The actual test begins by eliminating the growth medium and adding 100 μl of loading buffer per well (5 μM of BCECF-AM [2′,7′-bis(2-carboxyethyl)-5-(6)-carboxyfluoresceine acetoxymethyl ester] in 20 mM of NH4Cl, 115 mM of choline chloride, 1 mM of CaCl2, 5 mM of KCl, 20 mM of HEPES and 5 mM of glucose; pH 7.4 (adjusted with KOH). The cells are then incubated for 20 minutes at 37° C. This incubation results in the loading of the fluorescent dye into the cells, the fluorescence intensity of which depends on the pHi, and on the NH4Cl, which results in a slight basification of the cells.
The precursor BCECF-AM, a non-fluorescent dye, is, as an ester, capable of crossing the membrane. The actual dye, which is incapable of crossing the membrane, is released inside the cell by esterases.
After this 20-minute incubation, the loading buffer, which comprises NH4Cl and free BCECF-AM, is removed by washing three times in the cell washing device (Tecan Columbus), each wash being performed with 400 μl of washing buffer (133.8 mM of choline chloride, 4.7 mM of KCl, 1.25 mM of MgCl2, 1.25 mM of CaCl2, 0.97 mM of K2HPO4, 0.23 mM of KH2PO4, 5 mM of HEPES and 5 mM of glucose; pH 7.4 (adjusted with KOH)). The residual volume remaining in the wells is 90 μl (possibly between 50 and 125 μl). This washing step removes the free BCECF-AM and results in an intracellular acidification (pHi of 6.3-6.4) due to the removal of the external ammonium ions.
As the equilibrium of the intracellular ammonium with the aqueous ammonia and the protons, by removal of the extracellular ammonium and by the subsequent immediate crossing of the aqueous ammonia across the cell membrane, is disrupted, the washing process results in intracellular protons remaining, which is the cause of the intracellular acidification. This acidification can result finally in the death of the cells if it lasts long enough. It is important here for the washing buffer to be free of sodium (<1 mM), otherwise the extracellular sodium ions would result in an immediate increase in the pHi on account of the activity of the cloned NHE isoforms. It is also important for all the buffers used (loading buffer, washing buffer and regeneration buffer) not to contain any HCO3-ions, otherwise the presence of bicarbonate would result in the activation of bicarbonate-dependent systems that disrupt the pHi regulation, which systems are contained in the LAP-1 parental cell line.
The microtiter plates containing acidified cells are then transferred (up to 20 minutes after the acidification) to the FLIPR. In the FLIPR, the intracellular fluorescent dye is activated with light of a wavelength of 488 nm, which is generated by an argon laser, and the measuring parameters (laser power, illumination time and diaphragm of the […] camera integrated into the FLIPR) are chosen such that the average value of the fluorescent signal per well is between 30,000 and 35,000 relative fluorescence units.
The actual measurement in the FLIPR starts with a photograph being taken by the CCD camera every two seconds under software control. After 10 seconds, the increase in the intracellular pH is initiated by adding 90 μl of regeneration buffer (133.8 mM of NaCl, 4.7 mM of KCl, 1.25 mM of MgCl2, 1.25 mM of CaCl2, 0.97 mM of K2HPO4, 0.23 mM of KH2PO4, 10 mM of HEPES and 5 mM of glucose; pH 7.4 (adjusted with NaOH)) using a 96-well pipette device incorporated into the FLIPR. Some wells, to which is added pure regeneration buffer, serve as positive controls (100% NHE activity). […]

T1 sequence (P19634 whole entry, species assumed): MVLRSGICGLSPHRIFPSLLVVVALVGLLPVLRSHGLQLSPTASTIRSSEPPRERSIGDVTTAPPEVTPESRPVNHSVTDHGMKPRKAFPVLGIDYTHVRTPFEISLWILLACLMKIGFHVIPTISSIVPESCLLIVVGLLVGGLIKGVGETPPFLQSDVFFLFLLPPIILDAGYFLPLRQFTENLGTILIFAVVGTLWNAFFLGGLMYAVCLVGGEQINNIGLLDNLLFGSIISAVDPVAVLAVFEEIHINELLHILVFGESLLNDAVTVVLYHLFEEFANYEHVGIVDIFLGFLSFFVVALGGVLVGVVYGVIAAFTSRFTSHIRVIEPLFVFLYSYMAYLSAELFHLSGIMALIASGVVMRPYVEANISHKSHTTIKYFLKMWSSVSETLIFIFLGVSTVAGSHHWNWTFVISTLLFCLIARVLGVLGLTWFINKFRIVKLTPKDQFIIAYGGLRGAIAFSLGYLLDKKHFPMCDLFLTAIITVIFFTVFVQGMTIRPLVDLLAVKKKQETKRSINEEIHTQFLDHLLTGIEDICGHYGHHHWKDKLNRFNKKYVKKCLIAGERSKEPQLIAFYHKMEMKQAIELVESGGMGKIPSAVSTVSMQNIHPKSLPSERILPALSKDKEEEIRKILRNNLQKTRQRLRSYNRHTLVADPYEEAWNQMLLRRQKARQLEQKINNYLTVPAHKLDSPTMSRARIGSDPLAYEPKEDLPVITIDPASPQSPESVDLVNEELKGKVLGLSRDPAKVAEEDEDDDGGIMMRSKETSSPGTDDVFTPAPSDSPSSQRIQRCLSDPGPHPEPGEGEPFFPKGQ

Row | melting point | IC50 (NHE1) | Compound
1 | 264 °C | 50 nM | CC(C)CN1C(=O)c2ccccc2C1CC(=O)N=C(N)N (single isomer, unassigned; (-)) [Example 3, (−)-N-[2-(2-Isobutyl-3-oxo-2,3-dihydro-1H-isoindol-1-yl)acetyl]guanidine]
2 | – | 74 nM | CN1C(=O)c2ccccc2C1CC(=O)N=C(N)N (stereo not drawn) [Example 1, N-[2-(2-Methyl-3-oxo-2,3-dihydro-1H-isoindol-1-yl)acetyl]guanidine]
3 | – | 59 nM | CC(C)CN1C(=O)c2ccccc2C1CC(=O)N=C(N)N (stereo not drawn) [Example 2, N-[2-(2-Isobutyl-3-oxo-2,3-dihydro-1H-isoindol-1-yl)acetyl]guanidine]
4 | 229 °C | 92 nM | CCCN1C(=O)c2ccccc2C1CC(=O)N=C(N)N (stereo not drawn) [Example 5, N-[2-(3-Oxo-2-propyl-2,3-dihydro-1H-isoindol-1-yl)acetyl]guanidine]
5 | 223 °C | 211 nM | CCN1C(=O)c2ccccc2C1CC(=O)N=C(N)N (stereo not drawn) [Example 6, N-[2-(2-Ethyl-3-oxo-2,3-dihydro-1H-isoindol-1-yl)acetyl]guanidine]
6 | – | 116 nM | CC(C)N1C(=O)c2ccccc2C1CC(=O)N=C(N)N (stereo not drawn) [Example 7, N-[2-(2-Isopropyl-3-oxo-2,3-dihydro-1H-isoindol-1-yl)acetyl]guanidine]
7 | – | 156 nM | NC(N)=NC(=O)CC1c2ccccc2C(=O)N1Cc1ccccc1 (stereo not drawn) [Example 9, N-[2-(2-Benzyl-3-oxo-2,3-dihydro-1H-isoindol-1-yl)acetyl]guanidine]
8 | – | 251 nM | CC(C)CN1C(=O)c2cc(OC(C)C)ccc2C1CC(=O)N=C(N)N (stereo not drawn) [Example 16, N-[2-(2-Isobutyl-5-isopropoxy-3-oxo-2,3-dihydro-1H-isoindol-1-yl)-acetyl]-guanidine]
9 | – | 43 nM | CC(C)CN1C(=O)c2cccc(F)c2C1CC(=O)N=C(N)N (stereo not drawn) [Example 17, N-[2-(7-Fluoro-2-isobutyl-3-oxo-2,3-dihydro-1H-isoindol-1-yl)acetyl]guanidine]
10 | – | 18 nM | Cc1cccc2c1C(=O)N(CC(C)C)C2CC(=O)N=C(N)N (stereo not drawn) [Example 20, N-[2-(2-Isobutyl-4-methyl-3-oxo-2,3-dihydro-1H-isoindol-1-yl)-acetyl]-guanidine]
11 | – | 4.9 nM | NC(N)=NC(=O)CC1c2cc(C(F)(F)F)ccc2C(=O)N1CC(F)(F)F (stereo not drawn) [Example 21, N-{2-[3-Oxo-2-(2,2,2-trifluoro-ethyl)-6-trifluoromethyl-2,3-dihydro-1H-isoindol-1-yl]-acetyl}-quanidine]
12 | – | 100 nM | N=C(N)NC(=O)CC1c2ccccc2C(=O)N1CC(F)(F)F (stereo not drawn) [Example 22, N-[2-(3-Oxo-2-(2,2,2-trifluoroethyl)-2,3-dihydro-1H-isoindol-1-yl)acetyl]guanidine]
13 | – | 38 nM | Cc1ccc2c(c1)C(CC(=O)NC(=N)N)N(CC(C)C)C2=O (stereo not drawn) [Example 35, N-[(2-Isobutyl-6-methyl-3-oxo-2,3-dihydro-1H-isoindol-1-yl)acetyl]guanidine]
14 | – | 31 nM | [H]/N=C(\N)NC(=O)CC1c2cc(S(C)(=O)=O)ccc2C(=O)N1CC(F)(F)F [Example 36, (R)-N-{2-[6-Methanesulfonyl-3-oxo-2-(2,2,2-trifluoro-ethyl)-2,3-dihydro-1H-isoindol-1-yl]-acetyl}-quanidine and (S)-N-{2-[6-Methanesulfonyl-3-oxo-2-(2,2,2-trifluoro-ethyl)-2,3-dihydro-1H-isoindol-1-yl]-acetyl}-quanidine]
15 | – | 188 nM | [H]/N=C(\N)NC(=O)CC1c2cc(S(C)(=O)=O)ccc2C(=O)N1CC1CC1 (stereo not drawn) [Example 37, N-[2-(2-Cyclopropylmethyl-6-methanesulfonyl-3-oxo-2,3-dihydro-1H-isoindol-1-yl)acetyl]-guanidinium acetate]
16 | – | 3 nM | [H]/N=C(\N)NC(=O)CC1c2cc(Cl)c(Cl)cc2C(=O)N1CCC(F)(F)F (stereo not drawn) [Example 41a, N-{2-[5,6-Dichloro-3-oxo-2-(3,3,3-trifluoro-propyl)-2,3-dihydro-1H-isoindol-1-yl]-acetyl}-guanidine acetate]
17 | – | 2 nM | NC(N)=NC(=O)CC1c2cc(Cl)c(Cl)cc2C(=O)N1CC(F)(F)F (stereo not drawn) [Example 44a, N-{2-[5,6-Dichloro-3-oxo-2-(2,2,2-trifluoro-ethyl)-2,3-dihydro-1H-isoindol-1-yl]-acetyl}-guanidine acetate]
18 | – | 212 nM | NC(N)=NC(=O)CC1c2cc(F)c(F)cc2C(=O)N1CC(F)(F)F (stereo not drawn) [Example 45, N-{2-[5,6-Difluoro-3-oxo-2-(2,2,2-trifluoro-ethyl)-2,3-dihydro-1H-isoindol-1-yl]-acetyl}-guanidine]
19 | – | 10 nM | N-[2-(2-Cyclopropylmethyl-3-oxo-5-trifluoromethyl-2,3-dihydro-1H-isoindol-1-yl)acetyl]-guanidine and N-[2-(2-cyclopropylmethyl-3-oxo-6-trifluoromethyl-2,3-dihydro-1H-isoindol-1-yl)acetyl]guanidine [Example 25]
20 | – | 2340 nM | N-[2-(3-Oxo-2-(4,4,4-trifluorobutyl)-5-trifluoromethyl-2,3-dihydro-1H-isoindol-1-yl)-acetyl]guanidine and N-[2-(3-Oxo-2-(4,4,4-trifluorobutyl)-6-trifluoromethyl-2,3-dihydro-1H-isoindol-1-yl)acetyl]guanidine [Example 29]
21 | – | 22 nM | N-[2-(3-Oxo-5-trifluoromethyl-2-(3,3,3-trifluoropropyl)-2,3-dihydro-1H-isoindol-1-yl)-acetyl]guanidine and N-[2-(3-oxo-6-trifluoromethyl-2-(3,3,3-trifluoropropyl)-2,3-dihydro-1H-isoindol-1-yl)acetyl]guanidine [Example 27]
22 | – | 22 nM | N-[2-(5-Bromo-2-isobutyl-3-oxo-2,3-dihydro-1H-isoindol-1-yl)acetyl]guanidine and N-[(6-Bromo-2-isobutyl-3-oxo-2,3-dihydro-1H-isoindol-1-yl)acetyl]guanidine [Example 13]
23 | – | 7 nM | N-[2-(5-Chloro-2-isobutyl-3-oxo-2,3-dihydro-1H-isoindol-1-yl)acetyl]guanidine and N-[(6-Chloro-2-isobutyl-3-oxo-2,3-dihydro-1H-isoindol-1-yl)acetyl]guanidine [Example 12]
24 | – | 35 nM | N-[2-(5-Chloro-3-oxo-2-(2,2,2-trifluoroethyl)-2,3-dihydro-1H-isoindol-1-yl)acetyl]-guanidine and N-[2-(6-chloro-3-oxo-2-(2,2,2-trifluoroethyl )-2,3-dihydro-1H-isoindol-1yl)acetyl]quanidine [Example 23]
25 | – | 8.6 nM | N-[2-(5-Chloro-3-oxo-2-(3,3,3-trifluoropropyl)-2,3-dihydro-1H-isoindol-1-yl)acetyl]-guanidine and N-[2-(6-chloro-3-oxo-2-(3,3,3-trifluoropropyl)-2,3-dihydro-1H-isoindol-1-yl)acetyl]quanidine [Example 26]
26 | – | 88 nM | N-[2-(5-Chloro-3-oxo-2-(4,4,4-trifluorobutyl)-2,3-dihydro-1H-isoindol-1-yl)acetyl]-guanidine and N-[2-(6-chloro-3-oxo-2-(4,4,4-trifluorobutyl)-2,3-dihydro-1H-isoindol-1yl)acetyl]guanidine [Example 28]
27 | – | 7.7 nM | N-[2-(6-Chloro-2-cyclopropylmethyl-3-oxo-2,3-dihydro-1H-isoindol-1-yl )-acetyl]-guanidine and N-[2-(5-Chloro-2-cyclopropylmethyl-3-oxo-2,3-dihydro-1H-isoindol-1 yl)-acetyl]-guanidine [Example 24]
